From a melting point compilation (Tetko et al.; mined from patent text by program, amines drawn as free bases though some values may be those of a salt) come the findings set out here.

The compound `COC(=O)c1cc(Cl)ccc1N(C)S(=O)(=O)c1ccc(C)cc1` returned a melting point of 65.5 to 67 °C.

The compound `COC(=O)C1CCc2c([nH]c3ccc(Cl)cc23)C1` (stereo not given) showed a melting point of 175 to 176 °C.

Turning to `O=P(c1ccccc1)(c1ccccc1)C(O)c1c(Cl)cccc1Cl` (stereo not given), the melting point was in the range of 205 to 209 °C.

As to `CCN(CC)C(=O)c1ccc(C)c(-c2nc(NC3CCN(C)CC3)nc3c2CNC(=O)N3c2c(F)cccc2F)c1`, the melting point lay within 165 to 169 °C.

The compound `Cc1c([N+](=O)[O-])cnn1-c1c(Cl)cc(C(F)(F)F)cc1Cl` gave a melting point of 91 to 92 °C.

`CCOC(=O)c1ccc(CBr)cc1OC` displayed a melting point of 70 to 71 °C.

The compound `C[C@]12CCC(=O)N[C@@H]1CCc1cc(Sc3cccc(Cl)c3)ccc12` gave a melting point of 186 to 187 °C.

In turn, `CCc1sc2ccccc2c1C(=O)O` returned a melting point of 136 °C.

`O=C(Nc1cc(C(F)(F)F)cc(C(F)(F)F)c1)C1C(=O)C2CCC(C2)C1=O` (stereo not given) displayed a melting point of 88 to 90 °C.

With `CCOC(=O)c1nc(-c2ccc(OC)cc2)sc1C`, the melting point lay within 65 to 66 °C.

`COc1cc2c(cc1OC)CN(CCc1ccc(-c3ccccc3)cc1)CC2` returned a melting point of 162 to 164 °C.

Compound `CCCn1nc2c(N)nc3ccccc3c2c1CCCc1cc(-c2ccccc2)on1` returned a melting point of 172 to 173 °C.

The compound `COc1ccc(Cn2c(C)nc3c(Cl)ncnc32)cc1` returned a melting point of 121 to 123 °C.

In turn, `O=NSC1(C2OCCO2)CCCCC1` came in with a melting point of 37 to 39 °C.

In turn, `COc1ccc(Cn2ncc3c4c(cnc32)C(=O)NC4=O)cc1` showed a melting point of 196 to 197 °C.

`CC1(C(F)(F)F)CC(=O)CC(=O)C1` displayed a melting point of 150 to 152 °C.

`CCOC(=O)C1CSC(c2cc3cccc(NS(=O)(=O)c4cccs4)c3[nH]2)=N1` (stereo not given) returned a melting point of 156 to 157 °C.

Turning to `COc1cccc(O[C@@H]2COc3ccc(-c4ccc5cc(F)ccc5n4)cc3[C@@H]2O)c1` (relative stereo), the melting point lay within 131 to 132 °C.

Turning to `O=C(C1CCN(Cc2ccccc2)CC1)N1CCc2ccccc2C1`, the melting point is 98 to 100 °C.

`CC(C)(C)N(NCc1ccccc1)C(=O)c1ccccc1` yielded a melting point of 110 °C.

Compound `CCOC(=O)c1c(Oc2cccc(Cl)c2)c2cc(C(c3ccc(Cl)cc3)c3cnc(-c4ccccc4)[nH]3)ccc2[nH]c1=O` (stereo not given) showed a melting point of 189 °C.

Turning to `COc1ccc(CCl)cc1OCc1nc(-c2ccco2)oc1C`, the melting point was 115 to 116 °C.

`Cc1c(NC(=O)CC(C)(C)C)c(C)c2c(c1-c1ccc(N(C)C)nc1)OCC2c1ccc(C(C)C)cc1` (stereo not given): the melting point was 217 to 220 °C.

Turning to `CCCc1nn(C)c(C(N)=O)c1NC(=O)c1cc2cccc(OCC)c2o1`, the melting point is 219 to 221 °C.

In the case of `Cc1cccc2nc(-c3c(F)cccc3F)[nH]c12`, the melting point was determined as 148 °C.

Take `O=C(O)CCc1ccc(OCc2ccccc2)cc1`: the melting point lay within 123 to 124 °C.

Consider `CC(=Cc1cccc(F)c1)C(=O)O`, for which the melting point was 95 to 97 °C.

`CN(C)C(=O)C(C)(C)n1ccc(-c2ccccc2)n1` yielded a melting point of 99.5 to 102 °C.

`O=C(NCc1cccnc1)c1ccc2n1Cc1ccccc1N(C(=O)CSc1ccc(Br)cc1)C2` showed a melting point of 136 to 137 °C.

Regarding `CCOP1(=O)OCC(C)(C)c2cc(OS(C)(=O)=O)ccc2O1` (stereo not given), the melting point was in the range of 113 to 115 °C.

Take `Cc1cc(C(=O)c2ccc(Br)cc2)c(O)cc1Cl`: the melting point fell in the range of 238 to 239 °C.

As to `COc1c(C)cc(C)cc1C(=O)O`, the melting point was in the range of 97 to 98 °C.

`COC(=O)CNC(C)=S` gave a melting point of 78 to 79 °C.

In turn, `Cc1cccc(-c2ccc(S(=O)(=O)N3c4ccccc4CC3C(=O)NCc3ccc(CC(=O)O)cc3)cc2)c1` (stereo not given) had a melting point of 118 to 120 °C.

`CC(C)C=C(C=NO)c1ccccc1`: the melting point lay within 107 to 110 °C.

In turn, `CC(C#N)=C1CCN(c2ccc(N3C[C@H](CNC(=O)C(Cl)Cl)OC3=O)cc2F)CC1` gave a melting point of 202 to 204 °C.

In turn, `O=C(c1ccccn1)c1cnn2c(-c3cccc(NC(=O)C4CC4)c3)ccnc12` gave a melting point of 214 to 215 °C.

`O=C(Nc1ccc(OCC2CCCO2)c([N+](=O)[O-])c1)OCCCl` (stereo not given) gave a melting point of 84 to 86 °C.

`O=C(c1ccccc1)c1cnn2c(-c3ccccc3)ccnc12` returned a melting point of 163 to 165 °C.

For `O=C(NCc1ccsc1)N(O)CCO`, the melting point lay in the range of 114 to 115 °C.

`COc1cc(OC)c(C2CCN(C)CC2=O)c(OC)c1` (single isomer, unassigned; (+)) gave a melting point of 110 to 112 °C.

As for `Cc1c(C)n(CC2CC2)c2c(CCc3ccc(F)cc3F)nncc12`, the melting point is 159 to 160 °C.

Turning to `OC1CC(c2ccc(-c3ccc(OCc4ccc(Br)cc4)cc3)cc2)Cc2ccccc21` (stereo not given), the melting point came to 178 °C.

Take `Fc1ccc(-c2nn3c(c2-c2ccncc2)NNCC3)cc1`: the melting point was in the range of 233 to 235 °C.

For `CCOC(=O)c1cc2ccc(F)c(C)c2[nH]1`, the melting point was determined as 149 °C.

In the case of `Cc1nc2cc(Nc3nccc(-c4ccc(N5CCNCC5)nc4)n3)ccc2s1`, the melting point is 209 to 211 °C.

The compound `CC1C(=O)N(Cc2ccccc2)C(=S)N1c1ccc(Oc2ccccc2)cc1` (stereo not given) showed a melting point of 62 °C.

`CC(C)(C)CC(NC(=O)c1ccc(C(F)(F)F)cc1)NC(=NS(=O)(=O)C(F)(F)F)Nc1cccnc1` (stereo not given) had a melting point of 192 to 193 °C.

`COc1ccc2c(c1)c(CCO)c(C)n2-c1ncnc2cc(Cl)ccc12` displayed a melting point of 148 to 150 °C.

For the compound `O=C1C=C(Nc2ccccc2F)CCN1`, the melting point fell in the range of 98 to 100 °C.

Regarding `Cc1cccc2c1CCC(=O)C2(O)C(F)(F)F` (stereo not given), the melting point lay in the range of 122 to 123 °C.

In turn, `O=C1CCCC(Cl)=C1C(=O)c1ccc(Cl)c(OCCn2cnnn2)c1Cl` returned a melting point of 122 to 124 °C.

In turn, `COCCO[C@@H]1c2ccn3c(Br)c(C)nc3c2N[C@H](c2ccccc2)[C@H]1O` registered a melting point of 153 to 154 °C.

The compound `CCOC(=O)c1ncn2c1nc(N1CCOCC1)c1ccccc12` yielded a melting point of 165 °C.

`O=C1N(CCC2CC2)c2ccccc2C12COc1cc3c(cc12)OCO3` (stereo not given) registered a melting point of 125 to 127 °C.

As for `Cc1nc2cc(NC(=O)c3cc4cc(F)ccc4n3Cc3cccc(F)c3)cnc2s1`, the melting point fell in the range of 264 to 265 °C.

`CNC(=O)c1ccc(F)c2c1CC(N(CCc1c[nH]c3ccc(F)cc13)C1CCC1)CO2` (stereo not given) gave a melting point of 131 °C.

Compound `C(#Cc1cccs1)c1ccccc1` registered a melting point of 49 to 59 °C.

Consider `COc1ccc(-c2ccnc3[nH]c4ccccc4c23)cc1`, for which the melting point was in the range of 208 to 210 °C.

In turn, `Cc1cc2nc(C)c(=O)[nH]c2cc1C` registered a melting point of 306 to 308 °C.

As to `CC(=O)NCC1CN(c2ccc(S(C)=O)c(F)c2)C(=O)O1` (stereo not given), the melting point is 143 to 145 °C.

As to `COC(=O)c1cncc(NC(=O)C(C)CS)c1` (stereo not given), the melting point was 96 to 97 °C.

As for `O=c1[nH]c2cc(Cl)ccc2n1C1CCN(CCCC(c2ccc(F)cc2)c2ccc(F)cc2)CC1`, the melting point turned out to be 186 °C.

`CN(CCCl)C(=O)Nc1ccc([N+](=O)[O-])cc1C(F)(F)F` returned a melting point of 86 to 87 °C.

Turning to `CN1C(=O)[C@@H](N)[C@@H]1c1ccccc1` (relative stereo), the melting point worked out at 51.5 °C.

`COc1cc(C(=O)N(CCCC(=O)NCCCC(=O)O)c2c(C)cccc2C)cc(OC)c1OC`: the melting point fell in the range of 100 to 101 °C.

`OCc1cn(-c2ccc3c(c2)OC(F)(F)O3)cn1` showed a melting point of 163 to 164 °C.

In turn, `Cc1ccc(S(=O)(=O)N2Cc3cnc(C)n3-c3ccc(Cl)cc3C2c2ccccc2F)cc1` (stereo not given) displayed a melting point of 152 to 153 °C.

In turn, `CC1(C)Cc2cc(Cl)cc(Cl)c2C=[N+]1[O-]` gave a melting point of 92 to 94 °C.

On to `CC(C)(C)OC(=O)CCCCCCCCCC[N+](=O)[O-]`, for which the melting point lay in the range of 39 to 42 °C.

Compound `O=C(O)c1ccc2c(c1)Sc1ccccc1O2` returned a melting point of 253 °C.

For the compound `COCc1ccc(C[C@@H]2O[C@H](COC(C)=O)[C@@H](OC(C)=O)[C@H](OC(C)=O)[C@H]2OC(C)=O)cc1`, the melting point was 120 to 122 °C.

As to `COc1ccc2c(c1)CCC(C(=O)O)O2` (stereo not given), the melting point was in the range of 131 to 135 °C.

In the case of `COC(=O)c1ccccc1-c1cc(-c2cccc(C(F)(F)F)c2)no1`, the melting point fell in the range of 46 to 48 °C.

As to `O=C(O)c1cccc(-c2ccc3[nH]cc(-c4ccc(Cl)cc4Cl)c3c2)c1`, the melting point lay within 303 to 304 °C.

Regarding `O=C1CC(N2Cc3ccc(F)cc3NC2=O)C(=O)N1` (stereo not given), the melting point lay within 283 to 285 °C.

With `CSc1cc2c(cc1C(F)(F)F)N(C(=O)Nc1ccc(-c3csc(-c4ccncc4)n3)cc1)CC2`, the melting point lay in the range of 253 to 254 °C.

In the case of `CCCCc1[nH]c2ccc([N+](=O)[O-])cc2c1C(=O)c1ccc(OCCCN(CCCC)CCCC)cc1`, the melting point is 116 °C.

Take `O=C(Nc1ccc(C(=O)N2C[C@@H]3C[C@@H](O)CN3C(=O)c3ccccc32)cc1)c1ccccc1-c1ccccc1`: the melting point is 176 to 178 °C.

Take `Cc1cccc2c3c(n(Cc4ccc(F)cc4)c12)CCCC3=O`: the melting point is 154 to 155 °C.

Regarding `Cc1ccc(S(=O)(=O)Nc2ccc3nnc(C(=O)O)c(O)c3c2)cc1`, the melting point was 272 to 273 °C.

On to `CC(C)(C)OC(=O)N[C@@H](Cc1ccccc1)C[C@H](O)[C@H](Cc1ccccc1)N(Cc1ccccc1)Cc1ccccc1`, for which the melting point lay within 145 to 146 °C.

`O=c1[nH]c(=O)n(C2CC(O)C(CO)O2)cc1C#CI` (stereo not given) registered a melting point of 135 to 137 °C.

For `CCCCC(CC)COC(=O)c1cccc(S(N)(=O)=O)c1` (stereo not given), the melting point was in the range of 40 to 42 °C.

Regarding `CCOC(=O)c1cnc2n(c1=O)CCCCC2`, the melting point was in the range of 82 to 84 °C.

Compound `Cc1cc(OCC(=O)OC(C)C)ccc1NC(=O)NC(=O)c1ccc(C#N)cc1` came in with a melting point of 233 to 234 °C.

In turn, `CCN(CC1CCN(C(N)=O)CC1)C(C)Cc1ccc(OC)cc1` (stereo not given) had a melting point of 104 to 110 °C.

Take `CCOC(=O)c1sc(N)nc1-c1ccccc1Cl`: the melting point is 162 to 164 °C.

For `Cc1ccc(C2c3c(C)c(N)c(C)c(C)c3OC2(C)C)cc1` (stereo not given), the melting point was in the range of 91 to 92 °C.

`Nc1cccc(Nc2nccc(Sc3cccc(Br)c3)n2)c1` yielded a melting point of 109 to 110 °C.

Broadly, the melting point is the temperature, or range, at which the solid turns liquid.
